# Data taken from ChEMBL document CHEMBL4311986, “Synthesis and biological evaluation of new multi-target 3-(1H-indol-3-yl)pyrrolidine-2,5-dione derivatives with potential antidepressant effect” (Eur J Med Chem, 2019).
# Experiments:
# Mus musculus [1] = test: Induction of hypothermia in CD-1 mouse assessed as change in body temperature at 10 mg/kg, ip measured after 120 mins by thermometric method; format: functional, organism-based
# [2] = biological target: Sodium-dependent serotonin transporter (Homo sapiens, UniProt P31645); test: Displacement of [3H]-imipramine from human serotonin transporter expressed in HEK293 cells membranes incubated for 30 mins by microbeta scintillation counting analysis; format: cell membranes
# Sequence of Sodium-dependent serotonin transporter (P31645 whole entry): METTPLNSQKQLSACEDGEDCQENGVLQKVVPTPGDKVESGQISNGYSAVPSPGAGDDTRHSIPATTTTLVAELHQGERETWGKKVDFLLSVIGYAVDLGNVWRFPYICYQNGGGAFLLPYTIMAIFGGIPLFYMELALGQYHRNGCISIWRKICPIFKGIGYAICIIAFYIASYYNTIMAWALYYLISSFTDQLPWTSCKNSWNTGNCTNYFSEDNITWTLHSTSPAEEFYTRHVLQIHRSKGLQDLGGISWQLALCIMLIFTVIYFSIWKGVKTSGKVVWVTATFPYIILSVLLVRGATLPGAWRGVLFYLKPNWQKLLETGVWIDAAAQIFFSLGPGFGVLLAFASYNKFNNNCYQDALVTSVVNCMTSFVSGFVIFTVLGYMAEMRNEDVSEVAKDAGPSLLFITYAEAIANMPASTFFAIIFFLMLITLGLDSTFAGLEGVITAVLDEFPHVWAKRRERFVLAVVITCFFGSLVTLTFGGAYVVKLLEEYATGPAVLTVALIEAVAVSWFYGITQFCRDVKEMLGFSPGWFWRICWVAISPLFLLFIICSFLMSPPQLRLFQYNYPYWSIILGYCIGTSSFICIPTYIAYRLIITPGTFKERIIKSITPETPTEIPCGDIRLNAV
# [3] = biological target: 5-hydroxytryptamine receptor 6 (Homo sapiens, UniProt P50406); test: Displacement of [3H]-LSD from human 5-HT6 receptor expressed in HEK293 cells incubated for 1 hr by liquid scintillation counting method; format: cell-based
# Sequence of 5-hydroxytryptamine receptor 6 (P50406 whole entry): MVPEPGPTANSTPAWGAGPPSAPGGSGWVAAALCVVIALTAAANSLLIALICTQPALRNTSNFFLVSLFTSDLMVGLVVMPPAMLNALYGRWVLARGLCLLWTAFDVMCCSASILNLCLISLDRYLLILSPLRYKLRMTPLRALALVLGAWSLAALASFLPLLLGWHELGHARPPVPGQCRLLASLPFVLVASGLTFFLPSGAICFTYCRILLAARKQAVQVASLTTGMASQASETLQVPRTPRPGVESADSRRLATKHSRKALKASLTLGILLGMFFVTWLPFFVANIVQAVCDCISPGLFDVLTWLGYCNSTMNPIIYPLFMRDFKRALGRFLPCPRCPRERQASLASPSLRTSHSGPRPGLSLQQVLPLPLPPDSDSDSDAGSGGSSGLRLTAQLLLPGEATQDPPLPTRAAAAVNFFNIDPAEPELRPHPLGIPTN
# Mus musculus [4] = test: Induction of hypothermia in CD-1 mouse assessed as change in body temperature at 20 mg/kg, ip measured after 60 mins by thermometric method; format: functional, organism-based
# Mus musculus [5] = test: Induction of hypothermia in CD-1 mouse assessed as change in body temperature at 5 mg/kg, ip measured after 120 mins by thermometric method; format: functional, organism-based
# [6] = Half life in human liver microsomes at 1 uM measured for 5 to 30 mins in presence of NADPH by LC-MS/MS analysis; format: ADME, Microsome
# Mus musculus [7] = test: Induction of hypothermia in CD-1 mouse assessed as change in body temperature at 20 mg/kg, ip measured after 120 mins by thermometric method; format: functional, organism-based
# Mus musculus [8] = test: Induction of hypothermia in CD-1 mouse assessed as change in body temperature at 10 mg/kg, ip pretreated for 30 mins with 5-HT1AR antagonist WAY100635 followed by compound treatment and measured after 30 mins by thermometric method; format: functional, organism-based
# Mus musculus [9] = test: Induction of hypothermia in CD-1 mouse assessed as change in body temperature at 5 mg/kg, ip measured after 60 mins by thermometric method; format: functional, organism-based
# Mus musculus [10] = test: Induction of hypothermia in CD-1 mouse assessed as change in body temperature at 5 mg/kg, ip measured after 30 mins by thermometric method; format: functional, organism-based
# Mus musculus [11] = test: Induction of hypothermia in CD-1 mouse assessed as change in body temperature at 10 mg/kg, ip measured after 60 mins by thermometric method; format: functional, organism-based
# [12] = biological target: T1, 5-hydroxytryptamine receptor 1A (Homo sapiens, UniProt P08908); test: biochemical
# T1 sequence (P08908 whole entry): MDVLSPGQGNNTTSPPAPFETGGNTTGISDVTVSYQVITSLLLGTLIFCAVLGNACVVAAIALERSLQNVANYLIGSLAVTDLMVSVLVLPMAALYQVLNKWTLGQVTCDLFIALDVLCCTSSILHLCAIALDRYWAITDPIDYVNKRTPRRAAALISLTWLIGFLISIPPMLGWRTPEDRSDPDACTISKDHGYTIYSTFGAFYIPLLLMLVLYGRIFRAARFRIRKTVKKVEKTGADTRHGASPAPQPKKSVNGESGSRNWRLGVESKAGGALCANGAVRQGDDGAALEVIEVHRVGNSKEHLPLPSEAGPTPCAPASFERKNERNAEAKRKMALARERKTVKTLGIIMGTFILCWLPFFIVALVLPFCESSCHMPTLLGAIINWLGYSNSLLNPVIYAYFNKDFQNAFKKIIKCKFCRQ
# Mus musculus [13] = test: Induction of hypothermia in CD-1 mouse assessed as change in body temperature at 10 mg/kg, ip measured after 90 mins by thermometric method; format: functional, organism-based
# Mus musculus [14] = test: Induction of hypothermia in CD-1 mouse assessed as change in body temperature at 10 mg/kg, ip pretreated for 60 mins with 5-HT1AR antagonist WAY100635 followed by compound treatment and measured after 30 mins by thermometric method; format: functional, organism-based
# [15] = biological target: 5-hydroxytryptamine receptor 7 (Homo sapiens, UniProt P34969); test: Displacement of [3H]-5-CT from human 5HT7 receptor expressed in HEK293 cells incubated for 1 hr by liquid scintillation counting method; format: cell-based
# Sequence of 5-hydroxytryptamine receptor 7 (P34969 whole entry): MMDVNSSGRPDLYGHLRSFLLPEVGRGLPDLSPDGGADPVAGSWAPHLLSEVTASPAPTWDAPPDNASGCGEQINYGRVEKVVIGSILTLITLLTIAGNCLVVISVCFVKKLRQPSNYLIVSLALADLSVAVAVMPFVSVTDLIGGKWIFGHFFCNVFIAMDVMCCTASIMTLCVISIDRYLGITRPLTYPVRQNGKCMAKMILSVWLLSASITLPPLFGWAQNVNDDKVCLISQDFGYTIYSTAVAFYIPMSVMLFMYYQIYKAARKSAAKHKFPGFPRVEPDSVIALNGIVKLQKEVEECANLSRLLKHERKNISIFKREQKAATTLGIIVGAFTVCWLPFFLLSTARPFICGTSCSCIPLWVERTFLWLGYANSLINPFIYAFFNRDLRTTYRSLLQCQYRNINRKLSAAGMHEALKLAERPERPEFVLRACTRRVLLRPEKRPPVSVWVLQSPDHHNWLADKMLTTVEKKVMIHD
# Mus musculus [16] = test: Induction of hypothermia in CD-1 mouse assessed as change in body temperature at 5 mg/kg, ip measured after 90 mins by thermometric method; format: functional, organism-based
# Mus musculus [17] = test: Induction of hypothermia in CD-1 mouse assessed as change in body temperature at 10 mg/kg, ip measured after 30 mins by thermometric method; format: functional, organism-based
# Mus musculus [18] = test: Induction of hypothermia in CD-1 mouse assessed as change in body temperature at 20 mg/kg, ip measured after 90 mins by thermometric method; format: functional, organism-based
# Mus musculus [19] = test: Induction of hypothermia in CD-1 mouse assessed as change in body temperature at 20 mg/kg, ip measured after 30 mins by thermometric method; format: functional, organism-based
# D(2) dopamine receptor = D(2) dopamine receptor (Homo sapiens, UniProt P14416); test: Displacement of [3H]-raclopride from human D2L receptor expressed in HEK293 cells incubated for 1 hr by liquid scintillation counting method; format: cell-based
# Sequence of D(2) dopamine receptor (P14416 whole entry): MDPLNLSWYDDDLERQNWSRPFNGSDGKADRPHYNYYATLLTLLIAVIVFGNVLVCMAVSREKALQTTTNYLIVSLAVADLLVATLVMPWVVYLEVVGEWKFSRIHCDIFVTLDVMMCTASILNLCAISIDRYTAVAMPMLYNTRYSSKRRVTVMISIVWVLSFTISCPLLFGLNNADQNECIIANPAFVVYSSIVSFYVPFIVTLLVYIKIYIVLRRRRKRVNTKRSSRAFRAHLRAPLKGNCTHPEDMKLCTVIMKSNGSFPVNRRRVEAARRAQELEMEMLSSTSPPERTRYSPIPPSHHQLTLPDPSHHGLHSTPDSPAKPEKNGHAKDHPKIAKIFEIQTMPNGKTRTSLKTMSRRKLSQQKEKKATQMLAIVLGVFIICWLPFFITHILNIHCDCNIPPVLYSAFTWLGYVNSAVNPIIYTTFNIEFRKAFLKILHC
# Mus musculus [20] = test: Induction of hypothermia in CD-1 mouse assessed as change in body temperature at 15 mg/kg, ip measured after 60 mins by thermometric method (reference value: -0.2 to 0.5 deg C); format: functional, organism-based
# Mus musculus [21] = test: Induction of hypothermia in CD-1 mouse assessed as change in body temperature at 15 mg/kg, ip measured after 120 mins by thermometric method (reference value: -0.1 to 0.3 deg C); format: functional, organism-based
# Mus musculus [22] = test: Induction of hypothermia in CD-1 mouse assessed as change in body temperature at 15 mg/kg, ip pretreated for 30 mins with 5-HT1AR antagonist WAY100635 followed by compound treatment and measured after 30 mins by thermometric method (reference value: -0.1 to 0.1 deg C); format: functional, organism-based
# Mus musculus [23] = test: Induction of hypothermia in CD-1 mouse assessed as change in body temperature at 15 mg/kg, ip measured after 30 mins by thermometric method (reference value: -0.2 to 0.4 deg C); format: functional, organism-based
# Mus musculus [24] = test: Induction of hypothermia in CD-1 mouse assessed as change in body temperature at 15 mg/kg, ip measured after 90 mins by thermometric method (reference value: -0.3 to 0.3 deg C); format: functional, organism-based
# Mus musculus [25] = test: Induction of hypothermia in CD-1 mouse assessed as change in body temperature at 15 mg/kg, ip pretreated for 60 mins with 5-HT1AR antagonist WAY100635 followed by compound treatment and measured after 30 mins by thermometric method (reference value: -0.1 to 0.4 deg C); format: functional, organism-based
Compound,deltaT (Mus musculus [1]),Ki [2],Ki [3],deltaT (Mus musculus [4]),deltaT (Mus musculus [5]),half-life at 1 µM [6],deltaT (Mus musculus [7]),deltaT (Mus musculus [9]),deltaT (Mus musculus [10]),deltaT (Mus musculus [11]),Ki [12],deltaT (Mus musculus [13]),Ki [15],deltaT (Mus musculus [16]),deltaT (Mus musculus [17]),deltaT (Mus musculus [18]),deltaT (Mus musculus [19]),Ki (D(2) dopamine receptor),further results
COc1ccc2[nH]cc(C3CC(=O)N(CCCCN4CCC(c5c[nH]c6ccccc56)CC4)C3=O)c2c1 (stereo not given),-0.4 °C,705 nM,81 nM,-1.5 °C,-0.1 °C,10.5 min,-0.9 °C,0 °C,-0.2 °C,-0.4 °C,6.3 nM,-0.4 °C,25 nM,0 °C,-1.3 °C,-1.1 °C,-2.9 °C,16 nM,deltaT (Mus musculus [8]): 0.4 °C; deltaT (Mus musculus [14]): 0.5 °C
COc1ccc2[nH]cc(C3CCN(CCCN4C(=O)CC(c5c[nH]c6ccc(OC)cc56)C4=O)CC3)c2c1 (stereo not given),,111 nM,,,,,,,,,68.7 nM,,,,,,,,
COc1ccc2[nH]cc(C3CCCN(CCCCN4C(=O)CC(c5c[nH]c6ccc(OC)cc56)C4=O)C3)c2c1 (stereo not given),,,,,,,,,,,52 nM,,,,,,,,
O=C1CC(c2c[nH]c3ccc(F)cc23)C(=O)N1CCCN1CCC(c2c[nH]c3ccc(F)cc23)CC1 (stereo not given),,140 nM,,,,,,,,,336 nM,,,,,,,,
COc1ccc2[nH]cc(C3CCN(CCCCN4C(=O)CC(c5c[nH]c6ccc(OC)cc56)C4=O)CC3)c2c1 (stereo not given),0.4 °C,308 nM,427 nM,-1.2 °C,0.4 °C,9.7 min,-0.5 °C,0.3 °C,0.2 °C,0.6 °C,2.3 nM,0.6 °C,320 nM,0.2 °C,-0.5 °C,-0.6 °C,-3.1 °C,217 nM,deltaT (Mus musculus [20]): 0.2 °C; deltaT (Mus musculus [21]): 0.3 °C; deltaT (Mus musculus [22]): 0.8 °C; deltaT (Mus musculus [23]): -0.9 °C; deltaT (Mus musculus [24]): 0.5 °C; deltaT (Mus musculus [25]): 0 °C
O=C1CC(c2c[nH]c3ccccc23)C(=O)N1CCCCN1CCCC(c2c[nH]c3ccccc23)C1 (stereo not given),,,,,,,,,,,122 nM,,,,,,,,
O=C1CC(c2c[nH]c3ccc(F)cc23)C(=O)N1CCCCN1CCC(c2c[nH]c3ccc(F)cc23)CC1 (stereo not given),0.4 °C,32.4 nM,301 nM,-0.4 °C,0.3 °C,8.6 min,0.5 °C,0.2 °C,0.4 °C,-0.1 °C,7 nM,0.3 °C,1160 nM,0.4 °C,-1 °C,0.1 °C,-2 °C,19 nM,deltaT (Mus musculus [8]): 0.4 °C; deltaT (Mus musculus [14]): 0.4 °C
COc1ccc2[nH]cc(C3CC(=O)N(CCN4CCC(c5c[nH]c6ccccc56)CC4)C3=O)c2c1 (stereo not given),,142 nM,,,,,,,,,48.7 nM,,,,,,,,
O=C1CC(c2c[nH]c3ccc(F)cc23)C(=O)N1CCCCN1CCC(c2c[nH]c3ccccc23)CC1 (stereo not given),-0.2 °C,51 nM,29 nM,-0.7 °C,-0.3 °C,10 min,-0.6 °C,-0.2 °C,-0.4 °C,0.1 °C,13 nM,0 °C,50 nM,-0.2 °C,-0.6 °C,-0.2 °C,-2.3 °C,190 nM,deltaT (Mus musculus [20]): -0.7 °C; deltaT (Mus musculus [21]): -0.4 °C; deltaT (Mus musculus [22]): 0.1 °C; deltaT (Mus musculus [23]): -1.8 °C; deltaT (Mus musculus [24]): -0.4 °C; deltaT (Mus musculus [25]): 0.3 °C
COc1ccc2[nH]cc(C3CC(=O)N(CCN4CCC(c5c[nH]c6ccc(F)cc56)CC4)C3=O)c2c1 (stereo not given),,221 nM,,,,,,,,,222 nM,,,,,,,,
COc1ccc2[nH]cc(C3CCN(CCN4C(=O)CC(c5c[nH]c6ccc(OC)cc56)C4=O)CC3)c2c1 (stereo not given),,63 nM,,,,,,,,,240 nM,,,,,,,,
